The values below come from the supplement of paper PMC10307832.

Holding throughout (experiment): relative viability (nuclei count vs DMSO), 5 days (fraction); higher = more cells survive
Compound in the assay “Adavosertib + Alpelisib”: C=CCn1c(=O)c2cnc(Nc3ccc(N4CCN(C)CC4)cc3)nc2n1-c1cccc(C(C)(C)O)n1 [Adavosertib] + Cc1nc(NC(=O)N2CCC[C@H]2C(N)=O)sc1-c1ccnc(C(C)(C)C(F)(F)F)c1 [Alpelisib] (partner 2 µM)
The method, boiled down: (§1)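 Relative viability divides the nuclei count in treated wells by that in vehicle wells. Lung cancer cell lines were seeded in 1536-well plates, dosed by pin tool the next day, and fixed and stained after 5 days in one step with final 0.05% Triton X-100, 1% formaldehyde and 1 ug/ml Hoechst. Dosing was a single drug or a fixed anchor-drug dose plus five library-drug doses (not always all listed) in √10 steps, and values are medians of duplicate plates imaged at 4×.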

Compound in the assay “Adavosertib + Decitabine”: C=CCn1c(=O)c2cnc(Nc3ccc(N4CCN(C)CC4)cc3)nc2n1-c1cccc(C(C)(C)O)n1 [Adavosertib] + Nc1ncn([C@H]2C[C@H](O)[C@@H](CO)O2)c(=O)n1 [Decitabine] (partner 2 µM)
The gist of the method:
as §1

Compound in the assay “Nelarabine + Lapatinib”: COc1nc(N)nc2c1ncn2[C@@H]1O[C@H](CO)[C@@H](O)[C@@H]1O [Nelarabine] + CS(=O)(=O)CCNCc1ccc(-c2ccc3ncnc(Nc4ccc(OCc5cccc(F)c5)c(Cl)c4)c3c2)o1 [Lapatinib] (partner 2 µM)
The gist of the method: as §1

Compound in the assay “Nelarabine + Alpelisib”: COc1nc(N)nc2c1ncn2[C@@H]1O[C@H](CO)[C@@H](O)[C@@H]1O [Nelarabine] + Cc1nc(NC(=O)N2CCC[C@H]2C(N)=O)sc1-c1ccnc(C(C)(C)C(F)(F)F)c1 [Alpelisib] (partner 2 µM)
The gist of the method: as §1

Regarding NCI-H23, the relative viability amounted to 0.639 with Adavosertib + Alpelisib (first compound 0.01 µM); 0.775 in the assay with Adavosertib + Alpelisib (first compound 0.03162 µM); 0.591 with Adavosertib + Alpelisib (first compound 0.1 µM); 0.346 in the assay with Adavosertib + Alpelisib (first compound 0.3162 µM); 0.299 with Adavosertib + Decitabine (first compound 0.01 µM); 0.31 in the assay with Adavosertib + Decitabine (first compound 0.03162 µM). Also, the relative viability in the assay with Adavosertib + Decitabine (first compound 0.1 µM) is 0.255; with Adavosertib + Decitabine (first compound 0.3162 µM) it was 0.246; with Nelarabine + Lapatinib (first compound 0.01 µM), 1.5; with Nelarabine + Lapatinib (first compound 0.03162 µM), 1.1; with Nelarabine + Lapatinib (first compound 0.1 µM), 1.06; with Nelarabine + Lapatinib (first compound 0.3162 µM), 1.17. Further, the relative viability with Nelarabine + Lapatinib (first compound 1 µM) was found to be 1.18; in the assay with Nelarabine + Alpelisib (first compound 0.01 µM), 0.637; in the assay with Nelarabine + Alpelisib (first compound 0.03162 µM), 0.719; with Nelarabine + Alpelisib (first compound 0.1 µM), 0.606; with Nelarabine + Alpelisib (first compound 0.3162 µM) it was 0.686; with Nelarabine + Alpelisib (first compound 1 µM), 0.693.

For the cell line EKVX, the relative viability was 0.843 with Adavosertib + Alpelisib (first compound 0.01 µM); 0.858 with Adavosertib + Alpelisib (first compound 0.03162 µM); 0.833 with Adavosertib + Alpelisib (first compound 0.1 µM); 0.911 with Adavosertib + Alpelisib (first compound 0.3162 µM); 0.329 with Adavosertib + Decitabine (first compound 0.01 µM); 0.388 with Adavosertib + Decitabine (first compound 0.03162 µM). The relative viability in the assay with Adavosertib + Decitabine (first compound 0.1 µM) amounted to 0.383; with Adavosertib + Decitabine (first compound 0.3162 µM) it was 0.4; in the assay with Nelarabine + Lapatinib (first compound 0.01 µM), 0.2; with Nelarabine + Lapatinib (first compound 0.03162 µM), 0.155; in the assay with Nelarabine + Lapatinib (first compound 0.1 µM), 0.168; in the assay with Nelarabine + Lapatinib (first compound 0.3162 µM), 0.204. Moreover, the relative viability came out at 0.21 with Nelarabine + Lapatinib (first compound 1 µM); 0.958 with Nelarabine + Alpelisib (first compound 0.01 µM); 0.772 with Nelarabine + Alpelisib (first compound 0.03162 µM); 0.717 with Nelarabine + Alpelisib (first compound 0.1 µM); 1.04 in the assay with Nelarabine + Alpelisib (first compound 0.3162 µM); 0.832 with Nelarabine + Alpelisib (first compound 1 µM).

Regarding NCI-H1915, the relative viability with Adavosertib + Alpelisib (first compound 0.01 µM) amounted to 1.07; with Adavosertib + Alpelisib (first compound 0.03162 µM) it was 1.07; in the assay with Adavosertib + Alpelisib (first compound 0.1 µM), 1.13; in the assay with Adavosertib + Alpelisib (first compound 0.3162 µM), 1.15; with Adavosertib + Decitabine (first compound 0.01 µM), 0.262; with Adavosertib + Decitabine (first compound 0.03162 µM), 0.251. Further, the relative viability amounted to 0.272 in the assay with Adavosertib + Decitabine (first compound 0.1 µM); 0.282 with Adavosertib + Decitabine (first compound 0.3162 µM); 1.19 with Nelarabine + Lapatinib (first compound 0.01 µM); 0.867 in the assay with Nelarabine + Lapatinib (first compound 0.03162 µM); 1.01 with Nelarabine + Lapatinib (first compound 0.1 µM); 1.09 in the assay with Nelarabine + Lapatinib (first compound 0.3162 µM). The relative viability with Nelarabine + Lapatinib (first compound 1 µM) amounted to 0.997; with Nelarabine + Alpelisib (first compound 0.01 µM) it was 1.2; with Nelarabine + Alpelisib (first compound 0.03162 µM), 1.05; with Nelarabine + Alpelisib (first compound 0.1 µM), 1.11; with Nelarabine + Alpelisib (first compound 0.3162 µM) it was 1.07; with Nelarabine + Alpelisib (first compound 1 µM), 1.06.

In the case of LU99A, the relative viability is 0.48 with Adavosertib + Alpelisib (first compound 0.01 µM); 0.511 with Adavosertib + Alpelisib (first compound 0.03162 µM); 0.476 with Adavosertib + Alpelisib (first compound 0.1 µM); 0.319 in the assay with Adavosertib + Alpelisib (first compound 0.3162 µM); 0.942 with Adavosertib + Decitabine (first compound 0.01 µM); 0.912 with Adavosertib + Decitabine (first compound 0.03162 µM). Besides, the relative viability in the assay with Adavosertib + Decitabine (first compound 0.1 µM) amounted to 0.846; in the assay with Adavosertib + Decitabine (first compound 0.3162 µM) it was 0.69; in the assay with Nelarabine + Lapatinib (first compound 0.01 µM) it was 1.15; with Nelarabine + Lapatinib (first compound 0.03162 µM) it was 1.04; with Nelarabine + Lapatinib (first compound 0.1 µM), 1.19; in the assay with Nelarabine + Lapatinib (first compound 0.3162 µM), 1.12. In addition, the relative viability with Nelarabine + Lapatinib (first compound 1 µM) is 1.1; in the assay with Nelarabine + Alpelisib (first compound 0.01 µM), 0.517; with Nelarabine + Alpelisib (first compound 0.03162 µM), 0.415; in the assay with Nelarabine + Alpelisib (first compound 0.1 µM) it was 0.519; with Nelarabine + Alpelisib (first compound 0.3162 µM) it was 0.476; in the assay with Nelarabine + Alpelisib (first compound 1 µM), 0.54.
